Experiments:
Format in all cases: cell-based
AMPK-α1 (WT) = target: T1, AMPK-α1 (WT) (Homo sapiens, UniProt Q13131); test: AMPK activity of FLAG-tagged AMPK-α1 (WT) expressed in HEK293 cells; conditions: 1 hr; for AMPK activity and Thr172 phosphorylation: WT FLAG-α1, A769662 300 μM, berberine 300 μM, phenformin 10 mM, troglitazone 100 μM, oligomycin 1 μM, SU6656 100 μM
T1 construct: we expressed FLAG-tagged full-length AMPK-α1 either as the WT or the AT mutant; expressed in transfected cells; host or cells: HEK293
Excerpt: (§1) (B) Western blotting of the same preparations as in (A). […] (D) Allosteric activation of WT and mutant α1β1γ1 complexes by MT 63-78, curve fitting as for (C). […] (E) Allosteric activation of WT and mutant α1β1γ1 complexes by AMP. Data were fitted to the equation for activation/inactivation by AMP ([Gowans et al., 2013]). […] (F) Activation of WT and AA mutant by various AMPK activators in HEK293 cells. […] FLAG-tagged complexes were isolated by immunoprecipitation and AMPK activity determined (mean ± SEM, n = 2).
(§2) We next expressed the FLAG-tagged WT or AA mutant of AMPK-α1 by transient transfection in HEK293 cells, treated with various agents, and measured AMPK activity in anti-FLAG immunoprecipitates. In Figure 4F, the results are expressed as absolute activities and are accompanied by blots showing Thr172 phosphorylation.
The α1-KD was precipitated using anti-FLAG and endogenous AMPK complexes using anti-α1 antibody, and activity determined. […] (B) Western blots (n = 2) using the indicated antibodies; samples from experiment in (A). (C) DNAs encoding FLAG-tagged AMPK-α1 (WT or AT mutant) were expressed by transient transfection in HEK293 cells, the cells treated with increasing concentrations of SU6656 for 1 hr, AMPK complexes precipitated with anti-FLAG, and activity measured.

AMPK-α1 AA mutant = target: T2, AMPK-α1 AA mutant (Homo sapiens, UniProt Q13131, K40A/K42A); test: AMPK activity of FLAG-tagged AMPK-α1 K40A/K42A (AA) mutant expressed in HEK293 cells; conditions: AA mutant FLAG-α1; same concentrations, 1 hr
T2 construct: Plasmid encoding full-length human AMPK-α1; expressed in transfected cells; host or cells: HEK293
Excerpt: as §1, §2

human AMPK-α2 (WT) = human AMPK-α2 (WT) (Homo sapiens, UniProt P54646); test: AMPK activity of FLAG-tagged WT AMPK-α2 expressed in HEK293 cells; conditions: SU6656 100 μM, phenformin 10 mM, A23187 10 μM, 1 hr
Method: (§3) Top: AMPK activity (mean ± SEM, n = 4); bottom: western blots showing phosphorylation of Thr172 on AMPK, and of ERK1/2, in cells treated with DMSO (control), SU6656 (100 μM), or PP2 (100 nM) (n = 2). (B) As (A), but in SYF cells. (C) HeLa cells were transfected with DNAs encoding GFP alone, or GFP fused to WT, Y261F/Y365F (FF), or Y36F/Y261F/Y365F (FFF) mutants of LKB1; cells were treated with increasing concentrations of SU6656 for 1 hr and AMPK activity determined (mean ± SEM, n = 4). See also Figure S1. (D) HEK293 cells were transfected with DNAs encoding FLAG-tagged AMPK-α2 with or without a Y436F mutation. Cells were incubated with DMSO (control), 100 μM SU6656, 10 mM phenformin, or 10 μM A23187 for 1 hr; AMPK complexes were immunoprecipitated using anti-FLAG antibody and assayed. The top panels show kinase activities (mean ± SD, n = 3); the bottom panels show blots from the same experiment (n = 2). In all panels, asterisks indicate significant differences from DMSO controls; in (D), there were no significant differences between the WT and Y463F mutant. **p < 0.01, ****p < 0.0001.

[1] = target: T3, endogenous full-length α1 complexes (Homo sapiens, UniProt Q13131); test: Activity of endogenous full-length α1 complexes in HEK293 cells; conditions: 1 hr
T3 construct: endogenous in cells
Excerpt: (§4) We next expressed an FLAG-tagged α1 kinase domain (α1-KD, residues 1–312) by transient transfection in HEK293 cells, treated the cells with various AMPK activators, and then assayed both the expressed α1-KD (precipitated using anti-FLAG) and endogenous full-length α1 complexes (precipitated using anti-α1 antibodies recognizing an epitope outside the α1-KD). […] This was also observed with A23187, as expected since this ionophore increases intracellular Ca^2+ and activates the alternate upstream kinase CaMKK2.
(§5) The α1-KD was precipitated using anti-FLAG and endogenous AMPK complexes using anti-α1 antibody, and activity determined. Results (mean ± SD, n = 2) are expressed relative to activities in DMSO controls. (B) Western blots (n = 2) using the indicated antibodies; samples from experiment in (A). (C) DNAs encoding FLAG-tagged AMPK-α1 (WT or AT mutant) were expressed by transient transfection in HEK293 cells, the cells treated with increasing concentrations of SU6656 for 1 hr, AMPK complexes precipitated with anti-FLAG, and activity measured. Results (mean ± SD, n = 3) are expressed relative to the DMSO control. […] Results (mean ± SD, n = 3) are expressed relative to the DMSO control. **p < 0.01, ***p < 0.001, ****p < 0.0001, ^†††p < 0.001; ns, not significant.

[2] = target: T4, α1 kinase domain (α1-KD, residues 1–312) (Homo sapiens, UniProt Q13131); test: Activity of FLAG-tagged α1 kinase domain expressed in HEK293 cells; conditions: 1 hr
T4 construct: amplifying residues 1-312 with an N-terminal FLAG-tag; expressed in transfected cells; host or cells: HEK293 (transient transfection, pcDNA5 FRT)
Excerpt: as §4, §5
A plasmid encoding the AMPK-α2 kinase domain (α2-KD) was made by amplifying residues 1-310 with 5' BamH1 and 3' Xho1 sites, the resulting PCR product was cloned into pGEX6P2. Point mutations were generated using the Quikchange II site-directed mutagenesis kit (Stratagene) and confirmed by DNA sequencing.

AMPK-α1 AT mutant = target: T5, AMPK-α1 AT mutant (Homo sapiens, UniProt Q13131, A167T); test: AMPK activity of FLAG-tagged AMPK-α1 AT mutant expressed in HEK293 cells; conditions: AT mutant FLAG-α1, 1 hr
T5 construct: we expressed FLAG-tagged full-length AMPK-α1 either as the WT or the AT mutant; expressed in transfected cells; host or cells: HEK293 (transient transfection)
Excerpt: as §5
To confirm that it acted by binding at the catalytic site, we expressed FLAG-tagged full-length AMPK-α1 either as the WT or the AT mutant.

[3] = target: T6, human AMPK-α2 Y436F mutant (Homo sapiens, UniProt P54646, Y436F); test: AMPK activity of FLAG-tagged Y436F AMPK-α2 expressed in HEK293 cells; conditions: SU6656 100 μM, phenformin 10 mM, A23187 10 μM, 1 hr
T6 construct: expressed in transfected cells; host or cells: HEK293 (transient transfection)
Method: as §3

T1 sequence (Q13131 whole entry): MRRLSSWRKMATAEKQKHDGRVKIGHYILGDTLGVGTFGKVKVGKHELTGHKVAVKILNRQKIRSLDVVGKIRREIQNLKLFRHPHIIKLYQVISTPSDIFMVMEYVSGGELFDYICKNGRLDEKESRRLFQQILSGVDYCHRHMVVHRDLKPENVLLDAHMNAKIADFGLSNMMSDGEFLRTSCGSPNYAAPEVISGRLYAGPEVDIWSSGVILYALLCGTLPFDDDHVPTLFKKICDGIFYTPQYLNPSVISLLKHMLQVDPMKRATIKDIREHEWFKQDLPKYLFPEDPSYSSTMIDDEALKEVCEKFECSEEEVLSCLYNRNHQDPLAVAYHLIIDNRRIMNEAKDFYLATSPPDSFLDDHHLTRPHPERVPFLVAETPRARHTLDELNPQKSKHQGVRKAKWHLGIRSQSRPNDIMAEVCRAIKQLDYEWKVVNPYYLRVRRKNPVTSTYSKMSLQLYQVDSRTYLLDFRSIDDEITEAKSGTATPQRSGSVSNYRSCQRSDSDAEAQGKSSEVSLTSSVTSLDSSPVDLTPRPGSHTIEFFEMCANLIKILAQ
T1 sequence (P54619 whole entry partner): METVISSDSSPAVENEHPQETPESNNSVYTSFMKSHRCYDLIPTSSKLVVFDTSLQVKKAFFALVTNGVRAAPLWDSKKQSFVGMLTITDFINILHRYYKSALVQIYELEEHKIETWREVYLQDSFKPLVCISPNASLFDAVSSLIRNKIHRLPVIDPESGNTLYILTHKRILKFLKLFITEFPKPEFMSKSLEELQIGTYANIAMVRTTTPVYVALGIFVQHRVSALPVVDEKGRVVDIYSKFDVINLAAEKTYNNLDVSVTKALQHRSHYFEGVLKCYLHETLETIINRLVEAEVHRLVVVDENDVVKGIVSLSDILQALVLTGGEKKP
T2 sequence (Q13131 whole entry K40A/K42A): as the sequence (Q13131 whole entry) above, with K40A, K42A counted along it
T2 sequence (P54619 whole entry partner): as the sequence (P54619 whole entry partner) above
T3 sequence (Q13131 whole entry): as the sequence (Q13131 whole entry) above
T3 sequence (P54619 whole entry partner): as the sequence (P54619 whole entry partner) above
T4 sequence (Q13131 1-312): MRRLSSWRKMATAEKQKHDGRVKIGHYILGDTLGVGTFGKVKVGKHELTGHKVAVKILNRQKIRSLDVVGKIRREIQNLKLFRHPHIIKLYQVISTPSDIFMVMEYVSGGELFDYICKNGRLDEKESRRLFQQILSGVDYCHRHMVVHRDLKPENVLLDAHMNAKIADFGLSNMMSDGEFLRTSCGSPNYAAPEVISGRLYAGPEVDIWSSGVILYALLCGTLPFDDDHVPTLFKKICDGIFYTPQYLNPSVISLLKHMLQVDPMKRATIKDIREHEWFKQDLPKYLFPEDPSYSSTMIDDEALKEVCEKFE
T5 sequence (Q13131 whole entry A167T): as the sequence (Q13131 whole entry) above, with A167T counted along it
T5 sequence (P54619 whole entry partner): as the sequence (P54619 whole entry partner) above
Sequence of human AMPK-α2 (WT) (P54646 whole entry, the tested form may be a part): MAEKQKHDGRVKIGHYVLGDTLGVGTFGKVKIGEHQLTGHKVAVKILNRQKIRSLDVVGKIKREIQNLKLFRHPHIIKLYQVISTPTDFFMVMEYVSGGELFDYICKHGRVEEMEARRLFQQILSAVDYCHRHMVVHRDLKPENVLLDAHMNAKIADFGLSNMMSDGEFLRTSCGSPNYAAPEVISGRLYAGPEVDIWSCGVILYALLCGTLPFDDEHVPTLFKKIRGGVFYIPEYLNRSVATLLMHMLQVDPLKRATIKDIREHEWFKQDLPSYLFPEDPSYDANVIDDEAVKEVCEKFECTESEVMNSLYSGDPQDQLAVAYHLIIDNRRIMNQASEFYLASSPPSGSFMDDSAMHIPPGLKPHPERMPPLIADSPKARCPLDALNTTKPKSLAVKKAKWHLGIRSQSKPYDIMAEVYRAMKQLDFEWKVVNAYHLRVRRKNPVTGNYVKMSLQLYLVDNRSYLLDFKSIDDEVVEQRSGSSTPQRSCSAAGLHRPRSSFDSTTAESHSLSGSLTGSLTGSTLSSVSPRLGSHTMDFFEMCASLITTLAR
Sequence of human AMPK-α2 (WT) (P54619 whole entry partner, the tested form may be a part): as the sequence (P54619 whole entry partner) above
T6 sequence (P54646 whole entry Y436F): as the sequence (P54646 whole entry, the tested form may be a part) above, with Y436F counted along it
T6 sequence (P54619 whole entry partner): as the sequence (P54619 whole entry partner) above

effect of AA mutation on AMPK activation (AMPK-α1 AA mutant)	AMPK activity in anti-FLAG immunoprecipitates (human AMPK-α2 (WT))	AMPK activity (AMPK-α1 (WT); WT FLAG-α1 (comparison with AT mutant))	kinase activity / Thr172 phosphorylation [1]	AMPK activity (AMPK-α1 AT mutant)	AMPK activation response with Y436F mutation [3]	SMILES	AMPK activity and Thr172 phosphorylation (AMPK-α1 (WT))	kinase activity / Thr172 phosphorylation [2]
abolished	all activated AMPK	activated equally well	doing this with the endogenous complexes	activated equally well	unaffected by the Y436F mutation	[H]/N=C(/N)N/C(=N/[H])NCCc1ccccc1 [phenformin]	activated AMPK and caused Thr172 phosphorylation	failed to activate or cause Thr172 phosphorylation
abolished	–	–	doing this with the endogenous complexes	–	–	Cc1c(C)c2c(c(C)c1O)CCC(C)(COc1ccc(CC3SC(=O)NC3=O)cc1)O2 (centres unmarked) [troglitazone]	activated AMPK and caused Thr172 phosphorylation	failed to activate or cause Thr172 phosphorylation

SMILES	effect of AA mutation on AMPK activation (AMPK-α1 AA mutant)	AMPK activity in anti-FLAG immunoprecipitates (human AMPK-α2 (WT))	AMPK activity (AMPK-α1 (WT); WT FLAG-α1 (comparison with AT mutant))	kinase activity / Thr172 phosphorylation [1]	AMPK activity (AMPK-α1 AT mutant)	AMPK activation response with Y436F mutation [3]	AMPK activity and Thr172 phosphorylation (AMPK-α1 (WT))	kinase activity / Thr172 phosphorylation [2]
CC[C@H]1/C=C/C=C/C[C@@H](C)[C@H](O)[C@@](C)(O)C(=O)[C@@H](C)[C@H](O)[C@@H](C)C(=O)[C@@H](C)[C@H](O)[C@@H](C)/C=C/C(=O)O[C@@H]2[C@H](C)[C@H](CC1)O[C@]1(CC[C@H](C)[C@H](C[C@@H](C)O)O1)[C@H]2C [oligomycin]	abolished	–	–	–	–	–	activated AMPK and caused Thr172 phosphorylation	–

From article PMC5522529, “Mechanisms of Paradoxical Activation of AMPK by the Kinase Inhibitors SU6656 and Sorafenib” (Cell Chemical Biology, 2017)
